# Results reported in ChEMBL document CHEMBL1201862, “PubChem BioAssay data set” (2004).
#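 Protocol summary: plate cells (96-well), add compound at 5 concentrations, incubate 48 h, interpolate endpoints linearly. GI50 = concentration required for 50% inhibition of growth.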 Calls of active or inactive are those of the source. No stated cut-off is given here; in the data, active = GI50 up to about 1.1 µM and inactive = higher.
# Tests used:
# Assay in all cases: NCI anticancer screen, dose series, 48 h
# [1] = system: SF-268
# [2] = system: LOX IMVI
# [3] = system: U-251
# [4] = system: A498
# [5] = system: HCT-15
# [6] = system: Malme-3M
# [7] = system: RPMI-8226
# [8] = system: HOP-62
# [9] = system: MDA-MB-231
# [10] = system: NCI-H522
# [11] = system: A549
# [12] = system: SR
# [13] = system: SN12C
# [14] = system: SK-OV-3
# [15] = system: HCC 2998
# [16] = system: CAKI-1
# [17] = system: NCI-H460
# [18] = system: IGROV-1
# [19] = system: K562
# [20] = system: OVCAR-3
Compound,GI50 [1],GI50 [2],GI50 [3],GI50 [4],GI50 [5] [µM],GI50 [6],GI50 [7],GI50 [8],GI50 [9],GI50 [10],GI50 [11],GI50 [12],GI50 [13],GI50 [14],GI50 [15],GI50 [16],GI50 [17],GI50 [18],GI50 [19],GI50 [20]
C/C(=N\Nc1nc2ccccc2s1)c1cc(C)ncn1,0.318 µM (active),0.499 µM (active),1 µM (active),9.93 µM (inactive),0.394,0.372 µM (active),0.337 µM (active),1.34 µM (inactive),0.286 µM (active),0.07 µM (active),2.25 µM (inactive),0.259 µM (active),0.392 µM (active),1.28 µM (inactive),1.72 µM (inactive),0.145 µM (active),0.426 µM (active),0.824 µM (active),0.129 µM (active),0.408 µM (active)
C/C=C/[C@H](O[Si](C)(C)C(C)(C)C)[C@@H](O)/C=C/C(=O)OCC,24 µM (inactive),17.5 µM (inactive),19.4 µM (inactive),30.3 µM (inactive),14.4,14.7 µM (inactive),2.04 µM (inactive),17 µM (inactive),25.8 µM (inactive),16.7 µM (inactive),30.1 µM (inactive),21.1 µM (inactive),23.1 µM (inactive),> 10 µM (inactive),16.4 µM (inactive),18.2 µM (inactive),15.9 µM (inactive),22.8 µM (inactive),21.7 µM (inactive),19.6 µM (inactive)
C1CN(c2nnc(N3CCC3)nn2)C1,90.6 µM (inactive),17.8 µM (inactive),> 71.8 µM (inactive),> 100 µM (inactive),> 100,44.4 µM (inactive),> 100 µM (inactive),> 85.7 µM (inactive),> 42.6 µM (inactive),44.4 µM (inactive),> 100 µM (inactive),> 100 µM (inactive),29 µM (inactive),> 100 µM (inactive),> 100 µM (inactive),> 94.4 µM (inactive),67.9 µM (inactive),> 100 µM (inactive),23.6 µM (inactive),> 92.7 µM (inactive)
Cc1c(C)c(S(=O)(=O)N(CCCCCN)OCCCN)c(C)c2c1OC(C)(C)CC2,10 µM (inactive),5.4 µM (inactive),5.64 µM (inactive),18.6 µM (inactive),18.6,14.3 µM (inactive),3.6 µM (inactive),8.05 µM (inactive),5.89 µM (inactive),6.28 µM (inactive),16 µM (inactive),1.61 µM (inactive),16.6 µM (inactive),13.4 µM (inactive),2.27 µM (inactive),20.5 µM (inactive),6.35 µM (inactive),2.82 µM (inactive),5.07 µM (inactive),5.9 µM (inactive)
COC(=O)C(Cc1c[nH]c2ccccc12)NC1=Nc2ccncc2S(=O)(=O)N1c1cccc(OC(C)C)c1 (stereo not given),41.9 µM (inactive),26.4 µM (inactive),47.6 µM (inactive),82 µM (inactive),43.2,56.1 µM (inactive),15.5 µM (inactive),56.2 µM (inactive),49.4 µM (inactive),21.4 µM (inactive),29.6 µM (inactive),21.8 µM (inactive),48.1 µM (inactive),> 100 µM (inactive),48.8 µM (inactive),32.4 µM (inactive),27.7 µM (inactive),18.7 µM (inactive),41.8 µM (inactive),36 µM (inactive)
CC(C)(O)CCc1ccc(O)c2c(=O)c3c(O)c4c(cc3oc12)O[C@H]1OC=C[C@@]41O [AUSTOCYSTIN D],0.056 µM (active),9.31 µM (inactive),< 0.01 µM (active),< 0.01 µM (active),< 0.01,1.08 µM (active),0.475 µM (active),0.147 µM (active),2.26 µM (inactive),5.27 µM (inactive),0.726 µM (active),1.23 µM (inactive),8.69 µM (inactive),0.0125 µM (active),< 0.01 µM (active),< 0.01 µM (active),0.0507 µM (active),< 0.01 µM (active),20 µM (inactive),< 0.01 µM (active)
COC(=O)[C@@H]1CN(C(C)=O)C(=O)N1C(=O)OCc1ccccc1,59.2 µM (inactive),> 100 µM (inactive),> 100 µM (inactive),> 100 µM (inactive),> 100,> 100 µM (inactive),> 100 µM (inactive),> 100 µM (inactive),> 100 µM (inactive),> 100 µM (inactive),> 100 µM (inactive),> 100 µM (inactive),> 100 µM (inactive),> 100 µM (inactive),> 100 µM (inactive),> 100 µM (inactive),> 100 µM (inactive),> 100 µM (inactive),> 100 µM (inactive),> 100 µM (inactive)
